Data on 11 compounds can be found in US20250368648A1, “MULTI-CYCLIC IRAK AND FLT3 INHIBITING COMPOUNDS AND USES THEREOF” (CHILDREN'S HOSPITAL MEDICAL CENTER, priority 2022, published 2025).

Read-outs that look alike come from different tables or passages of the source. Bounds are passed on as bounds.

Assay [1] has as its target T1, IRAK4 (Homo sapiens, UniProt Q9NWZ3).
T1 sequence (Q9NWZ3 1-460): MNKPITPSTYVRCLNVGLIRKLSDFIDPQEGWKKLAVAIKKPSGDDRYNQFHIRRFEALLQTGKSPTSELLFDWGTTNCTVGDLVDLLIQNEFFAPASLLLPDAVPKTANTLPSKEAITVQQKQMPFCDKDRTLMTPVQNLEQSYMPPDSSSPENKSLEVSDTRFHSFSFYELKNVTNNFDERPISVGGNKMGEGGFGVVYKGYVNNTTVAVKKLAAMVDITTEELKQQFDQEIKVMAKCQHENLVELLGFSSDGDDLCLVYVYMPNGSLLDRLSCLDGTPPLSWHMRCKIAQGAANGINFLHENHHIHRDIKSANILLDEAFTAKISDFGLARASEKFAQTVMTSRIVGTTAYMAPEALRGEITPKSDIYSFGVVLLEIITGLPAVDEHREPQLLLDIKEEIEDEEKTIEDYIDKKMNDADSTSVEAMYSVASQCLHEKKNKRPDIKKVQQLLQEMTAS
Description: RBC HotSpot Kinase Assay, IRAK4. Format: biochemical. The arrangement: purchased RBC (Reaction Biology) HotSpot assay. The settings on record: HotSpot functional assay, isolated kinase enzyme, 33P-ATP. The method in brief: (§1)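 Isolated kinases, possibly truncated or lacking regulatory receptor regions, were preincubated with compound for 20 min at room temp in 20 mM Hepes pH 7.5, 10 mM MgCl2, 1 mM EGTA, 2 mM DTT, 1% DMSO. Reactions were started with ^33P-ATP and run 2 h at room temperature; activity was read by P81 filter binding.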

In assay [2] the target is T2, FLT3 (Homo sapiens, UniProt P36888).
T2 sequence (P36888 27-993): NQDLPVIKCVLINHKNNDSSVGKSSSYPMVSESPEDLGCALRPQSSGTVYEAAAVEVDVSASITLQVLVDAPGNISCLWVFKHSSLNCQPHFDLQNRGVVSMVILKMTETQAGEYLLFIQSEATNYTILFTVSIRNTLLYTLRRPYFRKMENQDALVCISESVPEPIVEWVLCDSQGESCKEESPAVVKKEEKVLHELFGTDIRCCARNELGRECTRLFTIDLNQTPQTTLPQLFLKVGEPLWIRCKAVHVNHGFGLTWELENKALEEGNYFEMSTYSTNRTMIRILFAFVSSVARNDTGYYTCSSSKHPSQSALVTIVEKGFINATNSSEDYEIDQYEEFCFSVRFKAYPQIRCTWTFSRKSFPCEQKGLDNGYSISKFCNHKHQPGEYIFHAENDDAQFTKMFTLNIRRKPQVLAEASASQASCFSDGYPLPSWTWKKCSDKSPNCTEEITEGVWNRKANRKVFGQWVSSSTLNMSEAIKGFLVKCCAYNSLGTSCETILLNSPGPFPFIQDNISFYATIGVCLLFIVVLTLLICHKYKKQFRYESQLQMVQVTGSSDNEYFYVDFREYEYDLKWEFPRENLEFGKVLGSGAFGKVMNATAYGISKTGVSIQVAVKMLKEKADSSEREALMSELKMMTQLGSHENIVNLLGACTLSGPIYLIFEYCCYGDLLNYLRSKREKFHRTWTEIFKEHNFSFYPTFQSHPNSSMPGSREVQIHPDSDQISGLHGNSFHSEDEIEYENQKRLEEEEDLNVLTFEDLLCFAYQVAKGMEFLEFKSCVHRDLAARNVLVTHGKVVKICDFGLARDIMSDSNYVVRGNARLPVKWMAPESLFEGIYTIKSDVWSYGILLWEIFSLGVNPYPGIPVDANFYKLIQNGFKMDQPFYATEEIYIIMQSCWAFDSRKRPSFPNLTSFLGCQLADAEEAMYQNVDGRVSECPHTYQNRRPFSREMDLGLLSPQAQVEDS
Description: RBC HotSpot Kinase Assay, FLT3. Type of assay: biochemical. The arrangement: purchased RBC (Reaction Biology) HotSpot assay. The settings on record: HotSpot functional assay, isolated kinase enzyme, 33P-ATP. The gist of the method: as §1

The target in assay [3] is T3, IRAK1 (Homo sapiens, UniProt P51617).
T3 construct: purchased RBC (Reaction Biology) HotSpot assay
Description: RBC HotSpot Kinase Assay, IRAK1. The settings on record: HotSpot functional assay, isolated kinase enzyme, 33P-ATP. Format: biochemical. The method in brief:
as §1

In assay [4] the test system is NF-κB. Description: NF-kB assay in THP-1-Blue NF-κB cells (SEAP reporter). Type of assay: cell-based. As for the experimental part: THP-1-Blue NF-κB cells (InvivoGen) carrying a stable integrated NF-κB-inducible secreted embryonic alkaline phosphatase (SEAP) reporter construct were plated at a concentration of 1×10^5 cells per well. The cells were stimulated with Pam3CSK4 (1 ng/mL) or hIL1B (Ing/mL). After 10-20 minutes, the cells were then treated with vehicle (DMSO) or serial dilutions of the test compounds (10 doses tested for each test compound, with a 1:10 dilution series starting at 1 μM or 3 μM) with a final volume of 200 μL for 24 hours at 37° C. After 24 hours, the cells were centrifuged and 20 IL supernatant was incubated with 180 μL QUANTI-Blue reagent at 37° C. for 30-60 minutes. The levels of NF-κB-induced was measured in a microplate reader at 620 nm.

Assay [5] relates to MOLM14 D835Y cells. Description: MOLM14 D835Y cell viability assay (Cell Titer Glo). Format: cell-based. The settings on record: Homo sapiens, MOLM-14, 48 h. As for the experimental part: The cell line has activated FLT3 receptors which carry additional resistance mutations in the kinase domain (D835Y).
MOLM14 D835Y cells were grown in RPMI-1640 media supplemented with 20% fetal bovine serum (FBS). […] After cell addition, 23 nL of test compound were transferred into individual wells (22 doses tested for each test compound, with a 1:2 dilution series starting at 10 μM) via a 1536 pin-tool. Bortezomib (final concentration 2.3 μM) was used as a positive control for cell cytotoxicity.
For orientation: In ATP-based viability assays light output follows the ATP content of the culture.

Assay [6] has as its system MOLM14-FLT3-ITD (D835Y) AML cells. Description: Caspase-Glo 3/7 apoptosis assay, time course. Type of assay: cell-based. The settings on record: 4.12 nM added to dose level 7 of Compound 106 with dose level 7 of venetoclax.
Where [7] appears, read: THP-1-Blue NF-κB cells stimulated with Pam3CSK4, 24 hours, read-out: NF-κB Pam3SCK4 IC50.
[8] abbreviates: THP-1-Blue NF-κB cells stimulated with hIL1B, 24 hours, read-out: NF-κB IL1B IC50.

T3 sequence (P51617 whole entry): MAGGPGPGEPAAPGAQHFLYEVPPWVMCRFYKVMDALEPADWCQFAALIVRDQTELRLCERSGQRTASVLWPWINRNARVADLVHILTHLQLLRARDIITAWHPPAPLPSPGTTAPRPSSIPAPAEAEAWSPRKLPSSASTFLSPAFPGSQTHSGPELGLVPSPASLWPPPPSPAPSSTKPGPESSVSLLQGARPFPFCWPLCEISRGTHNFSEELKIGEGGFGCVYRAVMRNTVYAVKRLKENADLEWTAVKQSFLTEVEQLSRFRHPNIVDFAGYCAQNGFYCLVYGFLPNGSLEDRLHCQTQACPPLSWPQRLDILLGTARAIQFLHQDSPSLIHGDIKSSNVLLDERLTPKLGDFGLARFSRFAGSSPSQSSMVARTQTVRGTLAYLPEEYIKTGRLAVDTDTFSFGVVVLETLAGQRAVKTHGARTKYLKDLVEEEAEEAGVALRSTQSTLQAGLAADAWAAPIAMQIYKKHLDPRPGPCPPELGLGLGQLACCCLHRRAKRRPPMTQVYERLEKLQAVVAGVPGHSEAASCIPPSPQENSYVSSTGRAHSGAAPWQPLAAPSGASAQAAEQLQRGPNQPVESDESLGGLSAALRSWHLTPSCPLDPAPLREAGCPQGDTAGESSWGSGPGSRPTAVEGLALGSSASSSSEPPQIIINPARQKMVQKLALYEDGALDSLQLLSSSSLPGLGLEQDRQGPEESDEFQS

As a reminder, the IC50 is the concentration at which inhibition is half-maximal. In the case of `COc1cc2ncc(-c3nc(N[C@H]4CNC[C@@H]4F)c(F)cc3F)n2nc1C1COC1` [Compound 71a, 3,5-difluoro-N-((3S,4S)-4-fluoropyrrolidin-3-yl)-6-(7-methoxy-6-(oxetan-3-yl)imidazo[1,2-b]pyridazin-3-yl)pyridin-2-amine], the IC50 in assay [1] was 1 nM; in assay [2], less than 0.5 nM; in assay [3], 50 nM; in assay [4] (setting [7]), 80 nM; in assay [4] (setting [8]) it was 97 nM.

`COc1cc2ncc(-c3nc(N[C@H]4CNCC[C@@H]4F)c(F)cc3F)n2nc1C1CCO1` (stereo partly drawn) [Compound 74a, 3,5-difluoro-N-((3S,4S)-4-fluoropiperidin-3-yl)-6-(7-methoxy-6-(oxetan-2-yl)imidazo[1,2-b]pyridazin-3-yl)pyridin-2-amine]: the IC50 in assay [1] is 3 nM; in assay [2], less than 0.5 nM; in assay [3], 59 nM; in assay [4] (setting [7]), 254 nM; in assay [4] (setting [8]), 345 nM.

Consider `COc1cc2ncc(-c3nc(N[C@H]4CNC[C@@H]4F)ccc3F)n2nc1C1CC1` [Compound 45a, 6-(6-cyclopropyl-7-methoxyimidazo[1,2-b]pyridazin-3-yl)-5-fluoro-N-((3S,4S)-4-fluoropyrrolidin-3-yl)pyridin-2-amine], for which the IC50 in assay [5] was 20 nM; in assay [1] it was less than 0.5 nM; in assay [2] it was less than 0.5 nM; in assay [3], 37 nM; in assay [4] (setting [7]), 44 nM; in assay [4] (setting [8]), 45 nM.

In the case of `COc1cc2ncc(-c3nc(N[C@H]4CNCC[C@@H]4F)ccc3F)n2nc1C1CC1` [Compound 47a, 6-(6-cyclopropyl-7-methoxyimidazo[1,2-b]pyridazin-3-yl)-5-fluoro-N-((3S,4S)-4-fluoropiperidin-3-yl)pyridin-2-amine], the IC50 was 4 nM in assay [5]; less than 0.5 nM in assay [1]; less than 0.5 nM in assay [2]; 6 nM in assay [3]; 45 nM in assay [4] (setting [7]); 95 nM in assay [4] (setting [8]).

On to `COc1cc2ncc(-c3ccc(C#N)c(N[C@@H]4CCCNC4)n3)n2nc1C1CC1` [Compound 28a, (R)-6-(6-cyclopropyl-7-methoxyimidazo[1,2-b]pyridazin-3-yl)-2-(piperidin-3-ylamino)nicotinonitrile], for which the IC50 in assay [1] was 13 nM; in assay [2] it was less than 0.5 nM; in assay [3], 836 nM; in assay [4] (setting [7]), 203 nM; in assay [4] (setting [8]), 481 nM.

For the compound `COc1cc2ncc(-c3ccc(C#N)c(N[C@H]4CNCC[C@@H]4F)n3)n2nc1C1CC1` [Compound 29a, 6-(6-cyclopropyl-7-methoxyimidazo[1,2-b]pyridazin-3-yl)-2-(((3S,4S)-4-fluoropiperidin-3-yl)amino)nicotinonitrile], the IC50 in assay [1] is less than 0.5 nM; in assay [2], less than 0.5 nM; in assay [3], 10 nM; in assay [4] (setting [7]), 66 nM; in assay [4] (setting [8]), 70 nM.

Turning to `COc1cc2ncc(-c3ccc(F)c(N[C@H]4CNC[C@@H]4F)n3)n2nc1C1CC1` [Compound 46a, 6-(6-cyclopropyl-7-methoxyimidazo[1,2-b]pyridazin-3-yl)-3-fluoro-N-((3S,4S)-4-fluoropyrrolidin-3-yl)pyridin-2-amine], the IC50 in assay [5] was 115 nM; in assay [1], less than 0.5 nM; in assay [2], less than 0.5 nM; in assay [3] it was 12 nM; in assay [4] (setting [7]), 59 nM; in assay [4] (setting [8]), 72 nM.

For the compound `COc1cc2ncc(-c3nc(N[C@@H]4CCCNC4)c(F)cc3F)n2nc1C12CC(C1)C2` [Compound 65a, (R)-6-(6-(bicyclo[1.1.1]pentan-1-yl)-7-methoxyimidazo[1,2-b]pyridazin-3-yl)-3,5-difluoro-N-(piperidin-3-yl)pyridin-2-amine], the IC50 in assay [1] is 9 nM; in assay [2], less than 0.5 nM; in assay [3], 18 nM; in assay [4] (setting [7]), 312 nM; in assay [4] (setting [8]), 410 nM.

As to `Nc1ncn([C@@H]2O[C@H](CO)[C@@H](O)[C@H]2O)c(=O)n1` [Compound 5-azacitdine, 5-azacitdine, reference compound], the “benefit of a third agent added to Compound 106 with venetoclax (apoptosis)” value in assay [6] is “little to no additional benefit”.

In the case of `COc1cc2ncc(-c3nc(N[C@@H]4CCCNC4)c(F)cc3F)n2nc1C1CC(C)(C)C1` [Compound 7a, (R)-6-(6-(3,3-dimethylcyclobutyl)-7-methoxyimidazo[1,2-b]pyridazin-3-yl)-3,5-difluoro-N-(piperidin-3-yl)pyridin-2-amine], the IC50 in assay [1] is 13 nM; in assay [2], less than 0.5 nM; in assay [3] it was 22 nM; in assay [4] (setting [7]) it was 2560 nM; in assay [4] (setting [8]), 2560 nM.

For the compound `Oc1cc2ncc(-c3nc(N[C@@H]4CCCNC4)c(F)cc3F)n2nc1C1CC1` [Compound 75a, (R)-6-cyclopropyl-3-(3,5-difluoro-6-(piperidin-3-ylamino)pyridin-2-yl)imidazo[1,2-b]pyridazin-7-ol], the IC50 in assay [1] was 34 nM; in assay [2], 0.8 nM; in assay [3] it was 473 nM; in assay [4] (setting [7]), 1740 nM; in assay [4] (setting [8]) it was 2270 nM.
